# What was measured:
# Experiment in all cases: Example B2 herbicidal action, post-emergence, pots in glasshouse, damage score 0-10
# Type in all cases: in vivo
# Settings in all cases: application post-emergence, rate 1000 g/ha, evaluated after 13 days
# [1] = system: Amaranthus retroflexus
# Description: (§1) Seeds of a variety of test species were sown in standard soil in pots. After 8 days cultivation (post-emergence) under controlled conditions in a glasshouse (at 24/16° C., day/night; 14 hours light; 65% humidity), the plants were sprayed with an aqueous spray solution derived from the formulation of the technical active ingredient in acetone/water (50:50) solution containing 0.5% Tween 20 (polyoxyethelyene sorbitan monolaurate, CAS RN 9005-64-5). The test plants were then grown in a glasshouse under controlled conditions in a glasshouse (at 24/16° C., day/night; 14 hours light; 65% humidity) and watered twice daily. After 13 days, the test was evaluated (10=total damage to plant; 0=no damage to plant).
# [2] = system: Echinochloa crus-galli
# Description: as §1
# [3] = system: Ipomea hederaceae
# Description: as §1
# [4] = system: Setaria faberi
# Description: as §1
# [5] = system: Solanum nigrum
# Description: as §1
Compound,AMARE damage score (10=total damage to plant; 0=no damage to plant) [1],ECHCG damage score (10=total damage to plant; 0=no damage to plant) [2],IPOHE damage score (10=total damage to plant; 0=no damage to plant) [3],SETFA damage score (10=total damage to plant; 0=no damage to plant) [4],SOLNI damage score (10=total damage to plant; 0=no damage to plant) [5]
CC(C)(C)C(=O)OC1=C(c2cc(-c3cccc(Cl)c3)ccc2Cl)S(=O)(=O)N(CC(F)F)c2nccnc21 [Compound C56],10,0,0,0,2
CC(C)C(=O)OC1=C(c2ccc(Cl)cc2Cl)S(=O)(=O)N(CC(F)(F)F)c2nccnc21 [Compound C57],10,4,10,3,10
"CC(C)C(=O)OC1=C(c2ccc(Cl)cc2Cl)S(=O)(=O)N(CCF)c2nccnc21 [Compound C58, isobutyric acid 3-(2,4-dichloro-phenyl)-1-(2-fluoroethyl)-2,2-dioxo-1,2-dihydro-2-λ-6-thia-1,5,8-triaza-naphthalen-4-yl ester]",10,6,9,4,9
CC(C)C(=O)OC1=C(c2cc(C(F)(F)F)ccc2Br)S(=O)(=O)N(CC(F)F)c2nccnc21 [Compound C59],10,7,10,3,10
CCSC(=O)OC1=C(c2cc(C(F)(F)F)ccc2Br)S(=O)(=O)N(CC(F)F)c2nccnc21 [Compound C60],10,7,10,1,10
CC(C)C(=O)OC1=C(c2ccccc2C(F)(F)F)S(=O)(=O)N(CC(F)F)c2nccnc21 [Compound C61],10,9,10,10,10
CC(C)(C)C(=O)OC1=C(c2ccccc2C(F)(F)F)S(=O)(=O)N(CC(F)F)c2nccnc21 [Compound C62],7,4,8,6,6
CCN1c2nccnc2C(OC(=O)C(C)C)=C(c2ccccc2C(F)(F)F)S1(=O)=O [Compound C63],9,7,10,7,9
CCN1c2nccnc2C(OC(=O)C(C)(C)C)=C(c2ccccc2C(F)(F)F)S1(=O)=O [Compound C64],4,5,6,3,5
CC(C)C(=O)OC1=C(c2ccccc2[N+](=O)[O-])S(=O)(=O)N(CC(F)F)c2nccnc21 [Compound C65],2,0,1,2,2
CCN1c2nccnc2C(OC(=O)C(C)C)=C(c2ccccc2[N+](=O)[O-])S1(=O)=O [Compound C67],0,0,2,0,1
C#CCN1c2nccnc2C(OC(=O)C(C)C)=C(c2ccccc2[N+](=O)[O-])S1(=O)=O [Compound C68],0,0,1,0,2
CCN1c2nccnc2C(OC(=O)C(C)(C)C)=C(c2cc(C(F)(F)F)ccc2Br)S1(=O)=O [Compound C69],4,2,7,0,6
CCN1c2nccnc2C(OC(=O)C(C)C)=C(c2cc(C(F)(F)F)ccc2Br)S1(=O)=O [Compound C70],7,7,10,1,8
CCSC(=O)OC1=C(c2c(Cl)ccc(Cl)c2Cl)S(=O)(=O)N(CC)c2nccnc21 [Compound C71],8,6,10,1,9
CCN1c2nccnc2C(OC(=O)C(C)(C)C)=C(c2c(Cl)ccc(Cl)c2Cl)S1(=O)=O [Compound C72],9,6,10,1,10
CC(C)C(=O)OC1=C(c2cccc(C(F)(F)F)c2Cl)S(=O)(=O)N(CC(F)F)c2nccnc21 [Compound C73],7,2,7,2,7
CC(C)(C)C(=O)OC1=C(c2cccc(C(F)(F)F)c2Cl)S(=O)(=O)N(CC(F)F)c2nccnc21 [Compound C74],7,4,7,3,6
CCN1c2nccnc2C(OC(=O)C(C)C)=C(c2cccc(C(F)(F)F)c2Cl)S1(=O)=O [Compound C75],5,1,2,0,6
CCN1c2nccnc2C(OC(=O)C(C)(C)C)=C(c2cccc(C(F)(F)F)c2Cl)S1(=O)=O [Compound C76],0,0,0,0,3
CC(C)C(=O)OC1=C(c2c(F)cccc2C(F)(F)F)S(=O)(=O)N(CC(F)F)c2nccnc21 [Compound C77],10,9,10,9,10
CC(C)(C)C(=O)OC1=C(c2c(F)cccc2C(F)(F)F)S(=O)(=O)N(CC(F)F)c2nccnc21 [Compound C78],4,4,3,3,6
CC(C)C(=O)OC1=C(c2c(C(F)(F)F)cccc2C(F)(F)F)S(=O)(=O)N(CC(F)F)c2nccnc21 [Compound C79],9,7,9,6,9
CC(C)(C)C(=O)OC1=C(c2cc(C(F)(F)F)ccc2Br)S(=O)(=O)N(CC(F)F)c2nccnc21 [Compound C80],10,6,10,0,10
CC(C)(C)C(=O)OC1=C(c2ccccc2I)S(=O)(=O)N(CC(F)F)c2nccnc21 [Compound C81],10,8,10,7,10

# — patent publication US8133849B2, “Herbicidal compounds” (Syngenta Limited, priority 2007, dated 2012)
